Assay results as given in the supplement of paper PMC10307832.

Experiments:
Assay in all cases: relative viability (nuclei count vs DMSO), 5 days (fraction); higher = more cells survive
201T = test system: 201T
Procedure, shortened: (§1)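 Lung cancer cell lines, seeded in 1536-well plates, were treated the following day by pin tool with a single drug or with five library-drug doses (not always all listed) in √10 steps on top of a fixed anchor-drug dose. Cells were fixed and nuclei stained in one step after 5 days, and nuclei were counted. Relative viability is the nuclei count for treated wells divided by that for vehicle wells, reported as medians of duplicate plates.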

COR-L 105 = test system: COR-L 105
Procedure, shortened: as §1

EPLC-272H = test system: EPLC-272H
Procedure, shortened: as §1

H3255 = test system: H3255
Procedure, shortened: as §1

HCC-78 = test system: HCC-78
Procedure, shortened: as §1

HCC-827 = test system: HCC-827
Procedure, shortened: as §1

LC-2-ad = test system: LC-2-ad
Procedure, shortened: as §1

LCLC-97TM1 = test system: LCLC-97TM1
Procedure, shortened: as §1

NCI-H1666 = test system: NCI-H1666
Procedure, shortened: as §1

NCI-H1915 = test system: NCI-H1915
Procedure, shortened: as §1

NCI-H2087 = test system: NCI-H2087
Procedure, shortened: as §1

NCI-H2126 = test system: NCI-H2126
Procedure, shortened: as §1

NCI-H2347 = test system: NCI-H2347
Procedure, shortened: as §1

NCI-H23 = test system: NCI-H23
Procedure, shortened: as §1

NCI-H2405 = test system: NCI-H2405
Procedure, shortened: as §1

NCI-H520 = test system: NCI-H520
Procedure, shortened: as §1

NCI-H647 = test system: NCI-H647
Procedure, shortened: as §1

NCI-H650 = test system: NCI-H650
Procedure, shortened: as §1

NCI-H661 = test system: NCI-H661
Procedure, shortened: as §1

PC-14 = test system: PC-14
Procedure, shortened: as §1

RERF-LC-KJ = test system: RERF-LC-KJ
Procedure, shortened: as §1

Q: Which results are given for O=c1cc(-c2cccc3c2Sc2ccccc2S3)oc(N2CCOCC2)c1 + C[C@]1(O)C[C@@H](c2nc(-c3ccc4ccc(-c5ccccc5)nc4c3)c3c(N)nccn32)C1 [Linsitinib] (partner 1 µM)?
A: relative viability (201T; first compound 0.08 µM): 0.99; relative viability (201T; first compound 0.253 µM): 1.04; relative viability (201T; first compound 0.8 µM): 0.929; relative viability (201T; first compound 2.53 µM): 0.974; relative viability (201T; first compound 8 µM): 0.986; relative viability (COR-L 105; first compound 0.08 µM): 0.771; relative viability (COR-L 105; first compound 0.253 µM): 1.11; relative viability (COR-L 105; first compound 0.8 µM): 0.823; relative viability (COR-L 105; first compound 2.53 µM): 0.958; relative viability (COR-L 105; first compound 8 µM): 1.07; relative viability (EPLC-272H; first compound 0.08 µM): 1.12; relative viability (EPLC-272H; first compound 0.253 µM): 1.31; relative viability (EPLC-272H; first compound 0.8 µM): 1.3; relative viability (EPLC-272H; first compound 2.53 µM): 1.19; relative viability (EPLC-272H; first compound 8 µM): 1.13; relative viability (H3255; first compound 0.08 µM): 1.15; relative viability (H3255; first compound 0.253 µM): 1.03; relative viability (H3255; first compound 0.8 µM): 1.02; relative viability (H3255; first compound 2.53 µM): 0.865; relative viability (H3255; first compound 8 µM): 0.983; relative viability (HCC-78; first compound 0.08 µM): 0.561; relative viability (HCC-78; first compound 0.253 µM): 0.746; relative viability (HCC-78; first compound 0.8 µM): 0.41; relative viability (HCC-78; first compound 2.53 µM): 0.457; relative viability (HCC-78; first compound 8 µM): 0.575; relative viability (HCC-827; first compound 0.08 µM): 0.892; relative viability (HCC-827; first compound 0.253 µM): 0.979; relative viability (HCC-827; first compound 0.8 µM): 0.925; relative viability (HCC-827; first compound 2.53 µM): 0.848; relative viability (HCC-827; first compound 8 µM): 0.915; relative viability (LC-2-ad; first compound 0.08 µM): 0.79; relative viability (LC-2-ad; first compound 0.253 µM): 0.967; relative viability (LC-2-ad; first compound 0.8 µM): 0.828; relative viability (LC-2-ad; first compound 2.53 µM): 0.749; relative viability (LC-2-ad; first compound 8 µM): 0.802; relative viability (LCLC-97TM1; first compound 0.08 µM): 0.18; relative viability (LCLC-97TM1; first compound 0.253 µM): 0.194; relative viability (LCLC-97TM1; first compound 0.8 µM): 0.203; relative viability (LCLC-97TM1; first compound 2.53 µM): 0.188; relative viability (LCLC-97TM1; first compound 8 µM): 0.185; relative viability (NCI-H1666; first compound 0.08 µM): 0.827; relative viability (NCI-H1666; first compound 0.253 µM): 0.946; relative viability (NCI-H1666; first compound 0.8 µM): 0.545; relative viability (NCI-H1666; first compound 2.53 µM): 0.738; relative viability (NCI-H1666; first compound 8 µM): 0.805; relative viability (NCI-H1915; first compound 0.08 µM): 1.06; relative viability (NCI-H1915; first compound 0.253 µM): 1.1; relative viability (NCI-H1915; first compound 0.8 µM): 1.07; relative viability (NCI-H1915; first compound 2.53 µM): 1.05; relative viability (NCI-H1915; first compound 8 µM): 1.12; relative viability (NCI-H2087; first compound 0.08 µM): 1.1; relative viability (NCI-H2087; first compound 0.253 µM): 1.03; relative viability (NCI-H2087; first compound 0.8 µM): 0.927; relative viability (NCI-H2087; first compound 2.53 µM): 0.952; relative viability (NCI-H2087; first compound 8 µM): 1.01; relative viability (NCI-H2126; first compound 0.08 µM): 0.707; relative viability (NCI-H2126; first compound 0.253 µM): 0.809; relative viability (NCI-H2126; first compound 0.8 µM): 0.708; relative viability (NCI-H2126; first compound 2.53 µM): 0.667; relative viability (NCI-H2126; first compound 8 µM): 0.592; relative viability (NCI-H2347; first compound 0.08 µM): 0.918; relative viability (NCI-H2347; first compound 0.253 µM): 1.15; relative viability (NCI-H2347; first compound 0.8 µM): 0.998; relative viability (NCI-H2347; first compound 2.53 µM): 1.02; relative viability (NCI-H2347; first compound 8 µM): 1.11; relative viability (NCI-H23; first compound 0.08 µM): 0.596; relative viability (NCI-H23; first compound 0.253 µM): 0.738; relative viability (NCI-H23; first compound 0.8 µM): 0.578; relative viability (NCI-H23; first compound 2.53 µM): 0.684; relative viability (NCI-H23; first compound 8 µM): 0.574; relative viability (NCI-H2405; first compound 0.08 µM): 0.878; relative viability (NCI-H2405; first compound 0.253 µM): 0.924; relative viability (NCI-H2405; first compound 0.8 µM): 0.85; relative viability (NCI-H2405; first compound 2.53 µM): 0.822; relative viability (NCI-H2405; first compound 8 µM): 0.768; relative viability (NCI-H520; first compound 0.08 µM): 0.897; relative viability (NCI-H520; first compound 0.253 µM): 1.06; relative viability (NCI-H520; first compound 0.8 µM): 1.15; relative viability (NCI-H520; first compound 2.53 µM): 0.972; relative viability (NCI-H520; first compound 8 µM): 1.02; relative viability (NCI-H647; first compound 0.08 µM): 1.3; relative viability (NCI-H647; first compound 0.253 µM): 1.16; relative viability (NCI-H647; first compound 0.8 µM): 1.16; relative viability (NCI-H647; first compound 2.53 µM): 1.03; relative viability (NCI-H647; first compound 8 µM): 1.35; relative viability (NCI-H650; first compound 0.08 µM): 0.829; relative viability (NCI-H650; first compound 0.253 µM): 0.854; relative viability (NCI-H650; first compound 0.8 µM): 0.782; relative viability (NCI-H650; first compound 2.53 µM): 0.642; relative viability (NCI-H650; first compound 8 µM): 0.7; relative viability (NCI-H661; first compound 0.08 µM): 0.507; relative viability (NCI-H661; first compound 0.253 µM): 0.473; relative viability (NCI-H661; first compound 0.8 µM): 0.55; relative viability (NCI-H661; first compound 2.53 µM): 0.527; relative viability (NCI-H661; first compound 8 µM): 0.591; relative viability (PC-14; first compound 0.08 µM): 1.02; relative viability (PC-14; first compound 0.253 µM): 1.07; relative viability (PC-14; first compound 0.8 µM): 0.966; relative viability (PC-14; first compound 2.53 µM): 0.92; relative viability (PC-14; first compound 8 µM): 0.948; relative viability (RERF-LC-KJ; first compound 0.08 µM): 0.865; relative viability (RERF-LC-KJ; first compound 0.253 µM): 0.939; relative viability (RERF-LC-KJ; first compound 0.8 µM): 0.85; relative viability (RERF-LC-KJ; first compound 2.53 µM): 1.01; relative viability (RERF-LC-KJ; first compound 8 µM): 0.763
